The text below walks through data of ChEMBL document CHEMBL6127107, “Oleanolic acid derivatives against drug-resistant bacteria and fungi by multi-targets to avoid drug resistance” (Eur J Med Chem, 2024).

≈ marks a conversion by molar mass, not a printed value. Calls of active or inactive are those of the source. No cut-off for these calls is given here.

Data set [1] relates to Staphylococcus aureus. Description: Antimicrobial activity against methicillin-resistant Staphylococcus aureus 003. It is filed as functional.
Data set [2] concerns Staphylococcus aureus. Description: Antimicrobial activity against Staphylococcus aureus 29. It is filed as functional.
A short description of data set [3]: Hemolytic activity against Mianyang red blood cells (unknown origin). It counts as toxicity, cell-based, RBC.
The subject of data set [4] is Staphylococcus aureus. In words: Antibacterial activity against methicillin-resistant Staphylococcus aureus assessed as inhibition of bacterial growth at 1 times of MIC. It is filed as functional, organism-based.
The subject of data set [5] is Staphylococcus aureus. Description: Bactericidal activity against methicillin-resistant Staphylococcus aureus. It is filed as functional, organism-based.
For data set [6], the system named is Staphylococcus aureus. Description: Bactericidal activity against methicillin-resistant Staphylococcus aureus assessed as eradication of bacterial growth at 4 times of MIC measured within 1 hrs relative to control. It counts as functional.
The subject of data set [7] is Staphylococcus aureus. In words: Synergistic antibacterial activity against methicillin-resistant Staphylococcus aureus assessed as fractional inhibitory concentration index in presence of ceftriaxone. It is filed as functional.
Data set [8] has as its system Staphylococcus aureus. Description: Synergistic antibacterial activity against methicillin-resistant Staphylococcus aureus assessed as fractional inhibitory concentration index in presence of chlorpromazine. It is filed as functional.
Data set [9] deals with Staphylococcus aureus. Description: Synergistic antibacterial activity against methicillin-resistant Staphylococcus aureus assessed as fractional inhibitory concentration index in presence of polymyxin B. It counts as functional, organism-based.
For data set [10], the system named is Staphylococcus aureus. Description: Antibiofilm activity against methicillin-resistant Staphylococcus aureus assessed as decrease in biofilm density at 1 to 8 times of MIC incubated for 24 hrs by fluorescence microscopic analysis. It counts as functional, organism-based.
Data set [11] deals with Staphylococcus aureus. Description: Antimicrobial activity against methicillin-resistant Staphylococcus aureus in presence of cardiolipin. It counts as functional, organism-based.
Data set [12] concerns Staphylococcus aureus. Description: Antimicrobial activity against methicillin-resistant Staphylococcus aureus in presence of phosphatidylethanolamine. It counts as functional, organism-based.
For data set [13], the system named is Cell membrane. In words: Disruption of cell membrane integrity in methicillin-resistant Staphylococcus aureus assessed as cell rupture at 2 to 4 times of MIC by scanning electron microscopic analysis. It counts as subcellular.
Data set [14] concerns Cell membrane. In words: Disruption of cell membrane integrity in methicillin-resistant Staphylococcus aureus assessed as cell deformation at 2 to 4 times of MIC by scanning electron microscopic analysis. It is filed as subcellular.
In a further data set the test system is DNA. In words: Binding affinity to methicillin-resistant Staphylococcus aureus DNA assessed as change in DNA conformation by UV absorption based analysis. It is filed as nucleic-acid assay.
The subject of data set [15] is Staphylococcus aureus. In words: Antibacterial activity against methicillin-resistant Staphylococcus aureus infected in cyclophosphamide-injected Kunming mouse model of skin wound infection assessed as reduction in IL-6 level in skin at 1 to 4 mg/kg administered for 7 days and measured on day 8. It is filed as functional, organism-based. The note with it: dose 1-4 mg/kg, time 8.0 day.

As usually defined, the MIC is the lowest concentration that inhibits growth of the organism. Higher therefore signals weaker potency. As usually defined, the HC50 is the concentration giving 50% haemolysis. A higher HC50 goes with less damage to red cells. As for `CC(=O)O[C@H]1CC[C@]2(C)[C@H]3CC=C4[C@@H]5CC(C)(C)CC[C@]5(C(=O)NCCCNC(=N)N)CC[C@@]4(C)[C@]3(C)CC[C@H]2C1(C)C`, the MIC in the data set with Staphylococcus aureus [1] and against Staphylococcus aureus [2] was 1 µg/mL (≈ 1.68 µM) each time. In data set [3], this molecule registered an HC50 of 399 µg/mL. The result in the data set on Staphylococcus aureus [4], in the data set on Staphylococcus aureus [5], with Staphylococcus aureus [7], in the data set with Staphylococcus aureus [8], in the data set on Staphylococcus aureus [9] and with Cell membrane [13] was Active. Further, the result in the data set on Cell membrane [14], in the data set with DNA and with Staphylococcus aureus [15] was Active. Moreover, the Activity was 99.99% in the data set with Staphylococcus aureus [6] and “Dose-Dependent Effect” in the data set on Staphylococcus aureus [10]. Besides, the result in the data set with Staphylococcus aureus [11] and in the data set on Staphylococcus aureus [12] was inactive.
